Laboratory results published in US10765764B2, “Probes for imaging huntingtin protein” (CHDI Foundation, Inc., priority 2015, dated 2020).

Legend:
[1] = test system: NFT in sections of AD brain tissue; settings: in vitro autoradiography and fluorescent staining; cited from earlier work
[2] = test system: recombinant tau and amyloid β1-42 (Aβ1-42) aggregates; settings: recombinant tau and Aβ1-42 aggregates; cited from earlier work
Q46 protein aggregates = target: T1, Q46 protein aggregates (Homo sapiens, UniProt P42858); assay: Q46 Radioligand Binding Assay (RBA), displacement of [^3H3]MK-3328; settings: 10 nM [^3H3]MK-3328, 5 μM Q46 protein aggregates
T1 construct: fused on or other part: An N-terminal GST tag, cleaved off with thrombin before the assay to trigger aggregation
Description: For radioligand binding assays (RBA) GST-Q46 protein was generated based on a previous publication (Scherzinger et al. Cell, Vol. 90, 549-558, Aug. 8, 1997). For experiments 33 μM GST-Q46 was incubated with 150 μg/mL thrombin in assay buffer (150 mM NaCl, 50 mM Tris pH 8.0) and 2 mM CaCl2 for 16 hours at 37° C. Aggregated Q46 was pelleted by centrifugation for 5 minutes at 13,000 rpm in a bench top centrifuge and re-dissolved in the same volume of assay buffer. Test compounds were prepared by titration in DMSO at 11 concentrations from 33 μM to 1 nM. For the RBA, Q46 protein aggregates and test compounds were pre-incubated in assay buffer for 20 minutes at room temperature, in 140 μL/well in a 96-well plate (pp, round bottom). Then, ligand was added in 10 μL/well and incubated for 60 minutes at 37° C. Final assay concentrations were 1 μM to 30 pM test compound, 5 μM Q46 protein (equivalent monomer concentration) and 10 nM ligand [^3H3]MK-3328 (Harrision et al., ACS Med. Chem. Lett., 2 (2011), pp 498-502). Samples were transferred onto GF/B filter plates and washed 2× with 200 μL PBS using a Filtermate Harvester. After drying filter plates for 1 hour at 37° C., the back of the plates was sealed with foil and 30 μl/well scintillation fluid (Packard MicroScint 40) was added, incubated for incubated for 15 minutes in the dark and counted in a TopCount reader. For analysis, replicate data from independent assay plates were normalized towards 0% and 100% inhibition using control wells of vehicle (0% inhibition) and 3 μM unlabelled MK-3328 (100% inhibition). IC50 values were determined with a sigmoidal inhibition model with four variables (top, bottom, slope, IC50) in a global fit using the normalized replicate data.

mHTT aggregates = assay: Autoradiography of mHTT aggregates in R6/2 mouse brain; type: binding; settings: 0.5 nM, 10 week old R6/2 mouse brain, compared with wild-type littermate
[3] = test system: zQ175 knock-in mice (cortex, hippocampus, striatum, cerebellum); assay: In vivo PET imaging in a knock-in model of Huntington's disease; set-up: species or system mouse; settings: for % SUV: Mean ± SD
Description: ^11C-labeled Compound 1 of Method 1 was evaluated for its ability to penetrate the central nervous system of mice following systemic administration, and its binding to the cerebellum, striatum, hippocampus, and cortex was quantitated. Three groups of animals were compared: wild-type, and mice that were heterozygous or homozygous for the zQ175 knock-in allele. (Menalled L. B. et al. Comprehensive behavioral and molecular characterization of a new knock-in mouse model of Huntington's disease: zQ175. PloS One 2012, 7, e49838). Forty-eight nine months old animals (16 WT, 16 heterozygous and 16 homozygous zQ175) were obtained from The Jackson Laboratory, USA. The animals were housed at the animal department of Karolinska University Hospital in a temperature (±21° C.) and humidity (±40%) controlled environment on a 12 hour light/dark cycle (lights on 7:00 AM) with access to food and water ad libitum. Animals were allowed at least one week to habituate to the animal department before the start of the imaging sessions. All experiments were conducted during the light phase of the cycle.
Animals were anesthetized with inhalation of isoflurane (4-5% isoflurane in oxygen). After induction of anesthesia, the isoflurane concentration was lowered to 1.5-2% in 50/50 air/oxygen and the animals were positioned in the scanner in a designated mouse bed. A cannula was inserted in the tail vein through which the radioligand was administered. A 63-minute dynamic PET scan was initiated immediately upon intravenous injection of the radioligand. Upon completion of the imaging sessions, each animal was returned to its cage.
The acquired list mode data, was reconstructed into 25 timeframes (63 minute scan=4×10 s, 4×20 s, 4×60 s, 7×180 s, 6×360 s). The image reconstruction was made with a fully 3-dimensional maximum-likelihood expectation maximization algorithm (MLEM) with 20 iterations, without scatter and attenuation correction. The reconstructed dynamic PET images were co-registered to an inbuilt mouse MRI template available in PMOD, which also incorporates volumes of interest (VOI's) sets (PMOD Technologies Ltd., Zurich, Switzerland). With the help of these VOI sets, decay corrected time activity curves (TAC) were generated. The regional brain uptake values were expressed as percent standard uptake value (% SUV), which normalizes for injected radioactivity and body weight. In addition, the area under the curve (AUC) was calculated. The selected regions of interest (ROI) were: cortex, hippocampus, striatum and cerebellum.
The average % SUV and AUC values for the ^11C-labeled Compound 1 of Method 1 in the four brain regions, for the three groups of mice, are shown in Table 23. […] FIG. 3 presents the AUC values for the three groups of animals in the four regions of the brain.

Aβ aggregates = target: T2, Aβ aggregates (Homo sapiens, UniProt P05067); assay: Autoradiography binding to Aβ aggregates in APP/PS1 mouse brain sections; settings: 1 nM radioligand, 12-month old heterozygous APP/PS1 mouse brain, compared with wild-type littermate
T2 construct: from tissue; host or cells: brain sections of 12 month old heterozygous APP/PS1 mice
Excerpt: Generation of tritiated compound 1, Method 1, for autoradiography studies was achieved by treating phenolic Compound 2 of Method 2 with tritiated methyl nosylate and a suitable base in N,N-dimethylformamide Purification by HPLC gave the tritiated compound in high radiochemical purity.
Brains were extracted from 12 month old heterozygous APP/PS1 animals (J. Neurochemistry 2009, 108, 1177-1186) and quickly frozen on dry ice in small weigh boats, wrapped with tin foil and stored in zip-lock bags at −80° C. for sectioning. Using a Leica CM3050S cryostat, 20 μm thick sections were generated representing the hippocampus (Bregma −1.34/−3.80) and the cortex/striatum (Bregma 1.54/−0.94). […]
10-[^3H]-methoxy-N-(pyridin-3-yl)-7-thia-2,5-diazatricyclo[6.4.0.0^2,6]dodeca-1(12),3,5,8,10-pentaene-4-carboxamide binding was determined in brain sections of a 12 month old APP/PS1 mouse and a WT littermate. […] Non-specific binding was determined for each radioligand in the presence of 1 μM of respective, cold ligand equivalent. […]
Quantification and Analysis: Signal intensity (cpm/mm^2) was measured for each brain section using Beta Vision+software. Specific (displaceable) binding, expressed in cpm/mm^2, was defined by the difference between total and non-specific binding and calculated as follows: (Total non-specific)/Total×100%. […]

T1 sequence (P42858 with tags, fused parts or gaps with the stated changes, form open): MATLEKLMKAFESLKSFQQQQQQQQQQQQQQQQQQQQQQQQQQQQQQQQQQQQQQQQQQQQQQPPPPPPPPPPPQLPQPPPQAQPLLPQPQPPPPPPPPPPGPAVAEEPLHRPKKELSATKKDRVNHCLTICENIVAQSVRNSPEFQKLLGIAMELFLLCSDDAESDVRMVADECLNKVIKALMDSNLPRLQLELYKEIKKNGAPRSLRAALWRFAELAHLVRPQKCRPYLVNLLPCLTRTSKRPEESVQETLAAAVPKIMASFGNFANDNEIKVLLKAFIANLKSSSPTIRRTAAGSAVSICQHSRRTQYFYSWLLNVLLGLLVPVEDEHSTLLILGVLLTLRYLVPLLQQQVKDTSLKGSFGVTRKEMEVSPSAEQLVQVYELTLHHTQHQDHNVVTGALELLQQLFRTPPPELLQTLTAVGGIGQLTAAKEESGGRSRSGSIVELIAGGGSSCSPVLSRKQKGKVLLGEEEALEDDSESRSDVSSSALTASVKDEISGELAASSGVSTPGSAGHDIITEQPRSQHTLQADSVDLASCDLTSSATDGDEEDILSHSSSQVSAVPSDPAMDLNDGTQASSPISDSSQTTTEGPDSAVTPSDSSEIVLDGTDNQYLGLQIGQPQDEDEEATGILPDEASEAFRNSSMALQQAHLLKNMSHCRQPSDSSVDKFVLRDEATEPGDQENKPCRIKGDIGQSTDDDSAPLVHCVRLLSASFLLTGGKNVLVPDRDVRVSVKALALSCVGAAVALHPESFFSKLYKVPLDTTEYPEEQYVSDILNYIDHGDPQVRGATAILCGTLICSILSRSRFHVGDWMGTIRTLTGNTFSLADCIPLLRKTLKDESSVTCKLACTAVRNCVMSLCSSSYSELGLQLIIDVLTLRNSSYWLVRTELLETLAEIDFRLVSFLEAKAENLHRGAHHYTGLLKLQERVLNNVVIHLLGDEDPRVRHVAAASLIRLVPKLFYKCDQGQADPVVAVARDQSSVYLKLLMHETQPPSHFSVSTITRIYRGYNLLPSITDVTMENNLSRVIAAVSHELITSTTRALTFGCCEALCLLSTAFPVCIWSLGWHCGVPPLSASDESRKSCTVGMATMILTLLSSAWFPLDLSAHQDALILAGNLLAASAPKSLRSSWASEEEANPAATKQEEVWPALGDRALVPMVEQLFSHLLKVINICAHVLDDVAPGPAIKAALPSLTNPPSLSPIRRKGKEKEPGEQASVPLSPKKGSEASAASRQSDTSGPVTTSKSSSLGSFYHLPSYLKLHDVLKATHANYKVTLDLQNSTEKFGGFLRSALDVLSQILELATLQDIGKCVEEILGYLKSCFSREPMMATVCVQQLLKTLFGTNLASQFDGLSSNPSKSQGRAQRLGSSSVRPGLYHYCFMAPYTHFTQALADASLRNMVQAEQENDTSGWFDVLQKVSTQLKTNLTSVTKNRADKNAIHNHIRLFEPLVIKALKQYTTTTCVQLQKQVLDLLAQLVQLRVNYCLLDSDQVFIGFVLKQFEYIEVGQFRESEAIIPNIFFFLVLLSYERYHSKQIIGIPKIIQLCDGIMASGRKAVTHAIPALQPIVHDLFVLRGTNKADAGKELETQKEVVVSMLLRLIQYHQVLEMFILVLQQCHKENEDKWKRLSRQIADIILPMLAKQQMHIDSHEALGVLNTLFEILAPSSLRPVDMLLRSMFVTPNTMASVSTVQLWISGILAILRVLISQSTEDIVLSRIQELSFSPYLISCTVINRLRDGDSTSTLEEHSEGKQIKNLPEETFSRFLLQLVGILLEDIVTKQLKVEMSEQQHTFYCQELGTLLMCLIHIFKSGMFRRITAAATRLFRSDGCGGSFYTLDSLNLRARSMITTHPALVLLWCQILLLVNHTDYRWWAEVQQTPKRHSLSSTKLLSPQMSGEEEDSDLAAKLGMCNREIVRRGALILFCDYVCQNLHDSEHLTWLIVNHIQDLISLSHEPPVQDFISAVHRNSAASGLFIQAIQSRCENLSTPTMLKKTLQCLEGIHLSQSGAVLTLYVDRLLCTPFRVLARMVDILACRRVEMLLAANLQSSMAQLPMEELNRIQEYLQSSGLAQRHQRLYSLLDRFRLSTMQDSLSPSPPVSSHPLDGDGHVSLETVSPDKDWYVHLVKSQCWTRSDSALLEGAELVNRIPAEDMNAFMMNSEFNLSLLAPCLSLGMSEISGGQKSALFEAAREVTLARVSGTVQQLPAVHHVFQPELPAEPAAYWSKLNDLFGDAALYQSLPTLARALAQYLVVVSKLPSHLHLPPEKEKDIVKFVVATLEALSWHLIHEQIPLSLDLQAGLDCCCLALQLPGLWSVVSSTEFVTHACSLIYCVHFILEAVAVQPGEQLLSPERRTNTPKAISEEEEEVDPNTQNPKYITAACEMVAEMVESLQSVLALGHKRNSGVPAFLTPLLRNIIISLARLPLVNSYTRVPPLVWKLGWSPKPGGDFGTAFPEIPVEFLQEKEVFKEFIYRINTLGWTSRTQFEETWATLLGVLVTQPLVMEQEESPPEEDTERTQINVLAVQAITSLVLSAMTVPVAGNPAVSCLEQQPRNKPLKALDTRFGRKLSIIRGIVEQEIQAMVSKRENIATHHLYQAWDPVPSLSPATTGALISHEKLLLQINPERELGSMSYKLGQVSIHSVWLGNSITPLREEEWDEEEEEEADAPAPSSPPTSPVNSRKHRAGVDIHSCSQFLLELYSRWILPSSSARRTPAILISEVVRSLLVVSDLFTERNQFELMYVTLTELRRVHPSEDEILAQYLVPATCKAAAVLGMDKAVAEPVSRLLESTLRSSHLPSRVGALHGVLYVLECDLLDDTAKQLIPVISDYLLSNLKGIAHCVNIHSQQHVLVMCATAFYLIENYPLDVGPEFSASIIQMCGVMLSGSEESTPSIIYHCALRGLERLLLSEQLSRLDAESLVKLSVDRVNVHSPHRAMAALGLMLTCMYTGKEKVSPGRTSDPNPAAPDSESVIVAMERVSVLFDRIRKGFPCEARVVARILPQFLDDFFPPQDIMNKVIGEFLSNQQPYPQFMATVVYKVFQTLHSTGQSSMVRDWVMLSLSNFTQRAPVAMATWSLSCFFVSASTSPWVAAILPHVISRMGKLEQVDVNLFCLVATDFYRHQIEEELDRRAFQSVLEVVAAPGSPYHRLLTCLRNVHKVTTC
T2 sequence (P05067 672-713 limits assumed): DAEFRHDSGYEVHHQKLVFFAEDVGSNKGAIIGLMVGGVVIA

CN(C)c1ccc(/C=C/c2nc3ccc(I)cc3[nH]2)cc1 [SBIM-3, 4-[(E)-2-(6-iodo-1H-benzimidazol-2-yl)ethenyl]-N,N-dimethylaniline]
binding to NFT in sections of AD brain tissue [1]: bound NFT | ratio of Kd values (affinity for tau aggregates vs Aβ1-42 aggregates) [2]: 2.73

COc1ccc2c(c1)sc1nc(C(=O)Nc3ccc(=O)n(C)n3)cn12 [10-methoxy-N-(1-methyl-6-oxo-1,6-dihydropyridazin-3-yl)-7-thia-2,5-diazatricyclo[6.4.0.0^2,6]dodeca-1(12),3,5,8,10-pentaene-4-carboxamide]
IC50 (Q46 protein aggregates): < 100 nM | visibility of mHTT aggregates in brain sections (mHTT aggregates): mHTT aggregates are visible

[11CH3]Oc1ccc2c(c1)sc1nc(C(=O)Nc3cccnc3)cn12 [^11C-labeled Compound 1 of Method 1, 10-[^11C]-methoxy-N-(pyridin-3-yl)-7-thia-2,5-diazatricyclo[6.4.0.0^2,6]dodeca-1(12),3,5,8,10-pentaene-4-carboxamide]
% SUV ([3]; Cerebellum, WT mice (n = 7)): 74.1 ± 7.1 % SUV | % SUV ([3]; Cerebellum, het zQ175 mice (n = 6)): 80.5 ± 6.5 % SUV | % SUV ([3]; Cerebellum, hom zQ175 mice (n = 8)): 92.3 ± 11.3 % SUV | % SUV ([3]; Cortex, WT mice (n = 7)): 67.1 ± 5.7 % SUV | % SUV ([3]; Cortex, het zQ175 mice (n = 6)): 73.4 ± 5.1 % SUV | % SUV ([3]; Cortex, hom zQ175 mice (n = 8)): 93.1 ± 9.6 % SUV | % SUV ([3]; Hippocampus, WT mice (n = 7)): 73.3 ± 6.5 % SUV | % SUV ([3]; Hippocampus, het zQ175 mice (n = 6)): 82.0 ± 6.3 % SUV | % SUV ([3]; Hippocampus, hom zQ175 mice (n = 8)): 107.1 ± 10.8 % SUV | % SUV ([3]; Striatum, WT mice (n = 7)): 71.9 ± 6.7 % SUV | % SUV ([3]; Striatum, het zQ175 mice (n = 6)): 82.7 ± 7.0 % SUV | % SUV ([3]; Striatum, hom zQ175 mice (n = 8)): 107.6 ± 9.6 % SUV | binding of the radioligand relative to wild type ([3]; all four brain regions, mice homozygous for the zQ175 allele): Increased binding of the radioligand, relative to wild type

COc1ccc2c(c1)nc1nc(C(=O)Nc3ccncc3C#N)ccn12 [N-(3-cyanopyridin-4-yl)-5-methoxy-1,8,10-triazatricyclo[7.4.0.0^2,7]trideca-2(7),3,5,8,10,12-hexaene-11-carboxamide]
IC50 (Q46 protein aggregates): < 100 nM

COc1ccc2c(c1)sc1nc(C(=O)Nc3ccc(=O)[nH]c3)cn12 [10-methoxy-N-(6-oxo-1,6-dihydropyridin-3-yl)-7-thia-2,5-diazatricyclo[6.4.0.0^2,6]dodeca-1(12),3,5,8,10-pentaene-4-carboxamide]
IC50 (Q46 protein aggregates): < 100 nM

COc1cncc(NC(=O)c2cn3c(nc4cc(OC)ccc43)s2)c1 [10-methoxy-N-(5-methoxypyridin-3-yl)-5-thia-2,7-diazatricyclo[6.4.0.0^2,6]dodeca-1(12),3,6,8,10-pentaene-4-carboxamide]
IC50 (Q46 protein aggregates): < 100 nM

COc1ccc(COc2ccc3c(c2)sc2nc(C(=O)Nc4cncc(OC)c4)cn23)nc1 [10-[(5-methoxypyridin-2-yl)methoxy]-N-(5-methoxypyridin-3-yl)-7-thia-2,5-diazatricyclo[6.4.0.0^2,6]dodeca-1(12),3,5,8,10-pentaene-4-carboxamide]
IC50 (Q46 protein aggregates): < 100 nM

COc1cncc(NC(=O)c2ccn3c(n2)nc2ccccc23)c1 [N-(5-methoxypyridin-3-yl)-1,8,10-triazatricyclo[7.4.0.0^2,7]trideca-2(7),3,5,8,10,12-hexaene-11-carboxamide]
IC50 (Q46 protein aggregates): < 100 nM

COc1ccc2c(c1)sc1nc(C(=O)Nc3ccc[n+]([O-])c3)cn12 [3-{10-methoxy-7-thia-2,5-diazatricyclo[6.4.0.0^2,6]dodeca-1(12),3,5,8,10-pentaene-4-amido}pyridin-1-ium-1-olate]
IC50 (Q46 protein aggregates): 100 to 500 nM

COc1cncc(NC(=O)c2cn3c(n2)sc2nc(OC)ccc23)c1 [10-methoxy-N-(5-methoxypyridin-3-yl)-7-thia-2,5,9-triazatricyclo[6.4.0.0^2,6]dodeca-1(12),3,5,8,10-pentaene-4-carboxamide]
IC50 (Q46 protein aggregates): < 100 nM

COc1ccc2c(c1)sc1nc(C(=O)Nc3cnn(C)c3)cn12 [10-methoxy-N-(1-methyl-1H-pyrazol-4-yl)-7-thia-2,5-diazatricyclo[6.4.0.0^2,6]dodeca-1(12),3,5,8,10-pentaene-4-carboxamide]
IC50 (Q46 protein aggregates): 100 to 500 nM

[3H]C([3H])([3H])Oc1ccc2c(c1)sc1nc(C(=O)Nc3cccnc3)cn12 [10-[^3H]-methoxy-N-(pyridin-3-yl)-7-thia-2,5-diazatricyclo[6.4.0.0^2,6]dodeca-1(12),3,5,8,10-pentaene-4-carboxamide]
visibility of Aβ aggregates in brain sections (Aβ aggregates): Aβ aggregates are visible
